Experimental findings from patent publication US20260103465A1, “GLYCOGEN SYNTHASE KINASE 3 INHIBITORS AND USES THEREOF” (The Broad Institute, Inc., priority 2023, published 2026) are described below.

Experiment [1] has as its target T1, GSK3a (GST-full length GSK3a) (Homo sapiens, UniProt P49840).
T1 construct: GST-full length GSK3a [SignalChem G08-10G]; purchased SignalChem G08-10G
Kind of experiment: GSK3a TR-FRET kinase inhibition assay. In kind it is biochemical. How it is done:
(§1) TR-FRET assay was performed in a white, 384 well, low volume, flat bottom plate (Grenier). After a 30 minute preincubation in assay buffer with the indicated concentration of compound, the kinase activity was initiated by the addition of the substrates. 1 nM GSK3a (GST-full length GSK3a [SignalChem G08-10G]) or 1 nM GSK3b (GST-full length GSK3b: [SignalChem G08-9G]) were then incubated at ambient temperature for 100 minutes in 10 μl of 50 mM Tris, pH 7.5, 20 mM MgCl2, 0.05 mM DTT, 100 μg/ml BSA and 1% DMSO, with 200 nM biotinylated peptide substrate (biotinylated and S645 phosphorylated glycogen synthase 631-650) and ATP (e.g., at 2 μM, 4 μM, 10 μM, 100 μM, or 1 mM). The kinase activity was quenched with 2 μl of 250 mM EDTA. A 10 μl volume of 40 nM Strepavidin-d2, 2 nM […] antibody in TR-FRET Detection Buffer (Invitrogen) was then added. After 60 min at room temperature the plate was read on Envision plate reader using Ex: 340 nm, Em: 615 nm and […]. The normalized 665/615 Signal ratio versus log compound concentration was analyzed by XLFIT to yield IC50 values.

In experiment [2] the target is T2, GSK3b (GST-full length GSK3b) (Homo sapiens, UniProt P49841).
T2 construct: GST-full length GSK3b: [SignalChem G08-9G]; purchased SignalChem G08-9G
Briefly: GSK3b TR-FRET kinase inhibition assay. The format is biochemical. How it is done: as §1
(In general: In TR-FRET formats the signal depends on donor and acceptor labels being close together.)

Where [3] appears, read: 4 μM ATP, read-out: GSK3α TR-FRET 4 μM ATP GMean IC50.
Where [4] appears, read: 2 μM ATP, read-out: GSK3β TR-FRET 2 μM ATP GMean IC50.
Setting [5] is: 1 mM ATP, Table 5, read-out: GSK3α TR-FRET 1 mM ATP Average IC50.
[6] abbreviates: 1 mM ATP, Table 5, read-out: GSK3β TR-FRET 1 mM ATP Average IC50.
[7] abbreviates: 1 mM ATP, Table 3, read-out: GSK3b TR-FRET 1 mM ATP Average IC50.
The mark [8] stands for this setting: 1 mM ATP, Table 3, read-out: GSK3a TR-FRET 1 mM ATP Average IC50.

Read-outs that look alike come from different tables or passages of the source.

T2 sequence (P49841 whole entry): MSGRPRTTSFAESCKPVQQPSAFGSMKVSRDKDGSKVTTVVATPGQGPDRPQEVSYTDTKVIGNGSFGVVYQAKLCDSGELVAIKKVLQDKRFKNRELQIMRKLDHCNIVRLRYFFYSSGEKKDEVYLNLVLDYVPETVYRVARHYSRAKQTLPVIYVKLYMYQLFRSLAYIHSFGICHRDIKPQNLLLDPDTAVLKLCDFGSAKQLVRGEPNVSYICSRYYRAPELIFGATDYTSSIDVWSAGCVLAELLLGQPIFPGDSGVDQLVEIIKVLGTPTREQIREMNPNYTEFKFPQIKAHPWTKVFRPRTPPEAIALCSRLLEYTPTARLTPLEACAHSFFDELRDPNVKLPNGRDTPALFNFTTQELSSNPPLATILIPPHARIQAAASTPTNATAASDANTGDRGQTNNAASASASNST
T1 sequence (P49840 whole entry): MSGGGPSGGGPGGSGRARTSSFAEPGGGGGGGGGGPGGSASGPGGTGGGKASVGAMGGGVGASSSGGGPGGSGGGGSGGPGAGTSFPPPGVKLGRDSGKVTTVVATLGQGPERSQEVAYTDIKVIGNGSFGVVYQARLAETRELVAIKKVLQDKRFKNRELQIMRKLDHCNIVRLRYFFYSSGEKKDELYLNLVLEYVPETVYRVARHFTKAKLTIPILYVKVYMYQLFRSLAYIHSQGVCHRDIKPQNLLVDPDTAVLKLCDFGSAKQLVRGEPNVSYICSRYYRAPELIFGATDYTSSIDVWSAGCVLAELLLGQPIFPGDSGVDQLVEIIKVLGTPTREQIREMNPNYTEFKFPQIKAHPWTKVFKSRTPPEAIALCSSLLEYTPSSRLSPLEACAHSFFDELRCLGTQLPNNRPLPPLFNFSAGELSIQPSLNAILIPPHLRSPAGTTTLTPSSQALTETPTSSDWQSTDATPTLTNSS

By IC50 is commonly meant the concentration that gives 50% inhibition. As to `CCC1(c2ccccc2)C2=C(CC(C)(C)CC2=O)Nc2ncccc21` (racemic) [Compound 102], the IC50 in experiment [1] (setting [3]) and in experiment [2] (setting [4]) was 0.1 to 1 µM in each case.
Regarding `CCC1(c2ccccc2)C2=C(CC(C)(C)CC2=O)Nc2ncc(F)cc21` (racemic) [Compound 114], the IC50 in experiment [1] (setting [3]) and in experiment [2] (setting [4]) was at most 0.1 µM throughout.
Consider `CCC1(c2cccc(C3CCC3)c2)C2=C(CC(C)(C)CC2=O)Nc2ncccc21` (racemic) [Compound 1012], for which the IC50 in experiment [1] (setting [3]) and in experiment [2] (setting [4]) was at most 0.1 µM each time.
Turning to `CCC1(c2ccccc2)C2=C(CC3(CCC3)CC2=O)Nc2ncccc21` (single isomer, unassigned) [110 A], the IC50 in experiment [1] (setting [3]) and in experiment [2] (setting [4]) was at most 0.1 µM in each case.
With `CCC1(c2ccccc2)C2=C(CC3(CCC3)CC2=O)Nc2ncccc21` (single isomer, unassigned) [110 B], the IC50 in experiment [1] (setting [3]) and in experiment [2] (setting [4]) was over 5 µM each time.
Consider `CCC1(c2ccccc2)C2=C(CC(C)(C)CC2=O)Nc2ncc(F)cc21` (single isomer, unassigned) [114 A], for which the IC50 in experiment [1] (setting [3]) is at most 0.1 µM; in experiment [1] (1 mM ATP, Table 4, read-out: GSK3α TR-FRET 1 mM ATP GMean IC50) it was 0.1 to 1 µM; in experiment [2] (setting [4]), at most 0.1 µM; in experiment [2] (1 mM ATP, Table 4, read-out: GSK3β TR-FRET 1 mM ATP GMean IC50), 1 to 5 µM.
With `CCC1(c2ccccc2)C2=C(CC(C)(C)CC2=O)Nc2ncc(F)cc21` (single isomer, unassigned) [114 B], the results for the IC50 in experiment [1] (setting [3]) and in experiment [2] (setting [4]) were 0.1 to 1 µM and 1 to 5 µM, respectively.
The corresponding values for `CCC1(c2ccccc2)C2=C(CC(C)(C)CC2=O)Nc2ncc(C(F)(F)F)cc21` (single isomer, unassigned) [133 A] are over 5 µM and over 5 µM.
Take `CCC1(c2ccccc2)C2=C(CC(C)(C)CC2=O)Nc2ncc(C(F)(F)F)cc21` (single isomer, unassigned) [133 B]: the IC50 in experiment [1] (setting [3]) and in experiment [2] (setting [4]) was at most 0.1 µM in each case.
Turning to `CCC1(c2cccc(-c3ccnc(C)c3C)c2)C2=C(CC(C)(C)CC2=O)Nc2ncccc21` (single isomer, unassigned) [147 A], the IC50 in experiment [1] (setting [3]) was 1 to 5 µM; in experiment [2] (setting [4]), over 5 µM.
As to `Cc1cnc2c(c1C)C(C)(c1ccccc1)C1=C(CC(C)(C)CC1=O)N2` (single isomer, unassigned) [601A], the IC50 in experiment [1] (setting [5]) and in experiment [2] (setting [6]) was 1 to 5 µM in each case.
Turning to `Cc1cnc2c(c1C)C(C)(c1ccccc1)C1=C(CC(C)(C)CC1=O)N2` (single isomer, unassigned) [601B], the IC50 in experiment [1] (setting [5]) and in experiment [2] (setting [6]) was 5 to 20 µM throughout.
On to `COc1cnc2c(c1)C(C)(c1ccccc1)C1=C(CC(C)(C)CC1=O)N2` (single isomer, unassigned) [602B], for which the IC50 in experiment [2] (setting [6]) was in the range of 5 to 20 µM.
Consider `Cc1cnc2c(c1C#N)C(C)(c1ccccc1)C1=C(CC(C)(C)CC1=O)N2` (single isomer, unassigned) [603A], for which the IC50 in experiment [1] (setting [5]) and in experiment [2] (setting [6]) was 5 to 20 µM in each case.
Regarding `Cc1cnc2c(c1C#N)C(C)(c1ccccc1)C1=C(CC(C)(C)CC1=O)N2` (single isomer, unassigned) [603B], the IC50 in experiment [1] (setting [5]) and in experiment [2] (setting [6]) was 0.1 to 1 µM in each case.
For the molecule `CC1(C)CC2=C(C(=O)N1)C(C)(c1ccccc1)c1c(ncc(F)c1C#N)N2` (single isomer, unassigned) [604A], the IC50 in experiment [1] (setting [5]) and in experiment [2] (setting [6]) was 1 to 5 µM in each case.
Turning to `CC1(C)CC2=C(C(=O)N1)C(C)(c1ccccc1)c1c(ncc(F)c1C#N)N2` (single isomer, unassigned) [604B], the IC50 in experiment [1] (setting [5]) and in experiment [2] (setting [6]) was at most 0.1 µM throughout.
As to `CC1(C)CC(=O)C2=C(C1)Nc1ncc(C#N)c(C#N)c1C2(C)c1ccccc1` (single isomer, unassigned) [605A], the IC50 in experiment [1] (setting [5]) and in experiment [2] (setting [6]) was 0.1 to 1 µM in each case.
`CC1(C)CC(=O)C2=C(C1)Nc1ncc(C#N)c(C#N)c1C2(C)c1ccccc1` (single isomer, unassigned) [605B]: the IC50 in experiment [1] (setting [5]) and in experiment [2] (setting [6]) was 5 to 20 µM in each case.
With `CC1(C)CC(=O)C2=C(C1)Nc1ncc3ccccc3c1C2(C)c1ccccc1` (single isomer, unassigned) [606A], the IC50 in experiment [1] (setting [5]) and in experiment [2] (setting [6]) was 5 to 20 µM throughout.
With `CC1(C)CC(=O)C2=C(C1)Nc1ncc3ccccc3c1C2(C)c1ccccc1` (single isomer, unassigned) [606B], the IC50 in experiment [1] (setting [5]) and in experiment [2] (setting [6]) was 1 to 5 µM throughout.
As for `C=Cc1cnc2c(c1C#N)C(C)(c1ccccc1)C1=C(CC(C)(C)CC1=O)N2` (single isomer, unassigned) [607A], the IC50 in experiment [1] (setting [5]) and in experiment [2] (setting [6]) was 1 to 5 µM each time.
For the molecule `C=Cc1cnc2c(c1C#N)C(C)(c1ccccc1)C1=C(CC(C)(C)CC1=O)N2` (single isomer, unassigned) [607B], the IC50 in experiment [1] (setting [5]) and in experiment [2] (setting [6]) was 5 to 20 µM in each case.
Turning to `CCc1cnc2c(c1C#N)C(C)(c1ccccc1)C1=C(CC(C)(C)CC1=O)N2` (single isomer, unassigned) [608A], the IC50 in experiment [1] (setting [5]) and in experiment [2] (setting [6]) was 1 to 5 µM in each case.
As for `CCc1cnc2c(c1C#N)C(C)(c1ccccc1)C1=C(CC(C)(C)CC1=O)N2` (single isomer, unassigned) [608B], the IC50 in experiment [1] (setting [5]) and in experiment [2] (setting [6]) was 5 to 20 µM each time.
As for `Cn1ncc2c3c(ncc21)NC1=C(C(=O)CC(C)(C)C1)C3(C)c1ccccc1` (single isomer, unassigned) [609A], the half-maximal inhibitory concentration (IC50) in experiment [1] (setting [5]) and in experiment [2] (setting [6]) was 5 to 20 µM in each case.
Regarding `Cn1ncc2c3c(ncc21)NC1=C(C(=O)CC(C)(C)C1)C3(C)c1ccccc1` (single isomer, unassigned) [609B], the IC50 was in the range of 5 to 20 µM in experiment [1] (setting [5]) and 1 to 5 µM in experiment [2] (setting [6]).
For `CNc1cnc2c(c1C#N)C(C)(c1ccccc1)C1=C(CC(C)(C)CC1=O)N2` (single isomer, unassigned) [610B], in that order: 5 to 20 µM and 5 to 20 µM.
In the case of `COc1cnc2c(c1C#N)C(C)(c1ccccc1)C1=C(CC(C)(C)CC1=O)N2` (single isomer, unassigned) [612A], the IC50 in experiment [2] (setting [6]) was in the range of 5 to 20 µM.
On to `COc1cnc2c(c1C#N)C(C)(c1ccccc1)C1=C(CC(C)(C)CC1=O)N2` (single isomer, unassigned) [612B], for which the IC50 in experiment [1] (setting [5]) and in experiment [2] (setting [6]) was 5 to 20 µM each time.
On to `CC1(C)CC(=O)C2=C(C1)Nc1ncc(CO)c(C#N)c1C2(C)c1ccccc1` (single isomer, unassigned) [613B], for which the IC50 in experiment [1] (setting [5]) lay within 5 to 20 µM; in experiment [2] (setting [6]) it was 1 to 5 µM.
`CC(=O)c1cnc2c(c1C#N)C(C)(c1ccccc1)C1=C(CC(C)(C)CC1=O)N2` (single isomer, unassigned) [621B]: the IC50 in experiment [2] (setting [6]) lay in the range of 5 to 20 µM.
Consider `CC(C)c1cnc2c(c1C#N)C(C)(c1ccccc1)C1=C(CC(C)(C)CC1=O)N2` (single isomer, unassigned) [622A], for which the IC50 in experiment [2] (setting [6]) was 5 to 20 µM.
On to `CC1(C)CC(=O)C2=C(C1)Nc1ncc(F)cc1C2(C)c1cccc(C(F)F)c1` (single isomer, unassigned) [623A], for which, in experiment [1] (setting [5]), the IC50 is 5 to 20 µM.
For `CC1(C)CC2=C(C(=O)N1)C(C)(c1ccccc1)c1cc(C(F)(F)F)cnc1N2` (single isomer, unassigned) [625B], in experiment [1] (setting [5]), the concentration for half-maximal inhibition (IC50) was 5 to 20 µM.
With `CC(C)Oc1cccc(C2(C)C3=C(CC(C)(C)CC3=O)Nc3ncc(F)cc32)c1` (single isomer, unassigned) [629A], the IC50 in experiment [2] (setting [6]) fell in the range of 5 to 20 µM.
Consider `CC1(C)CC2=C(C(=O)N1)C(C)(c1cccc(S(C)(=O)=O)c1)c1cccnc1N2` (single isomer, unassigned) [630B], for which, in experiment [1] (setting [5]), the IC50 is 5 to 20 µM.
Regarding `C=Cc1cnc2c(c1Br)C(C)(c1ccccc1)C1=C(CC(C)(C)CC1=O)N2` (single isomer, unassigned) [640A], the IC50 in experiment [2] (setting [6]) was in the range of 5 to 20 µM.
Regarding `Cc1c(C2(C)C3=C(CC(C)(C)CC3=O)Nc3ncc(F)cc32)cccc1S(C)(=O)=O` (single isomer, unassigned) [643B], in experiment [1] (setting [5]), the IC50 was 5 to 20 µM.
Consider `CC1(C)CC(=O)C2=C(C1)Nc1nccc(F)c1C2(C)c1ccccc1` (single isomer, unassigned) [Compound 105A], for which the IC50 in experiment [2] (setting [7]) fell in the range of 5 to 20 µM.
The same measure, in the same setting: next, `CC1(C)CC(=O)C2=C(C1)Nc1ncc(F)cc1C2(C)c1ccccc1` (single isomer, unassigned) [Compound 107A]: 5 to 20 µM.
Regarding `CC1(C)CC(=O)C2=C(C1)Nc1nccc(C#N)c1C2(C)c1ccccc1` (single isomer, unassigned) [Compound 108B], the IC50 in experiment [1] (setting [8]) was 5 to 20 µM.
Same read-out and setting: the value for `CC1(C)CC(=O)C2=C(C1)Nc1ncc(F)c(F)c1C2(C)c1ccccc1` (single isomer, unassigned) [Compound 116A] was 5 to 20 µM.
On to `CC1(C)CC(=O)C2=C(C1)Nc1ncc3c(c1C2(C)c1ccccc1)CCC3` (single isomer, unassigned) [Compound 118A], for which the IC50 in experiment [2] (setting [7]) was in the range of 5 to 20 µM.
